From US8653270B2, “Compounds as receptor modulators with therapeutic utility” (Allergan, Inc., priority 2010, dated 2014)
pEC50: −log10 of the molar value.

Key:
[1] = biological target: T1, human S1P1 receptor (Homo sapiens, UniProt P21453); assay: GTP γ35S binding assay for S1P1 activity; format: biochemical; conditions: membranes of cells stably expressing S1P1 receptor, 30 min at 25° C.
T1 construct: expressed in transfected cells; membranes used
Protocol: Compounds were tested for S1P1 activity using the GTP γ^35S binding assay. These compounds may be assessed for their ability to activate or block activation of the human S1P1 receptor in cells stably expressing the S1P1 receptor.
GTP γ^35S binding was measured in the medium containing (mM) HEPES 25, pH 7.4, MgCl2 10, NaCl 100, dithitothreitol 0.5, digitonin 0.003%, 0.2 nM GTP γ^35S, and 5 μg membrane protein in a volume of 150 μl. Test compounds were included in the concentration range from 0.08 to 5,000 nM unless indicated otherwise. Membranes were incubated with 100 μM 5′-adenylylimmidodiphosphate for 30 min, and subsequently with 10 μM GDP for 10 min on ice. Drug solutions and membrane were mixed, and then reactions were initiated by adding GTP γ^35S and continued for 30 min at 25° C. Reaction mixtures were filtered over Whatman GF/B filters under vacuum, and washed three times with 3 mL of ice-cold buffer (HEPES 25, pH 7.4, MgCl2 10 and NaCl 100). Filters were dried and mixed with scintillant, and counted for ^35S activity using a β-counter. Agonist-induced GTP γ^35S binding was obtained by subtracting that in the absence of agonist. Binding data were analyzed using a non-linear regression method. In case of antagonist assay, the reaction mixture contained 10 nM S1P in the presence of test antagonist at concentrations ranging from 0.08 to 5000 nM. Activity potency: S1P1 receptor from GTP γ^35S: nM, (EC50),

[2] = tested on: blood lymphocytes; assay: Lymphopenia assay in mice; format: in vivo; conditions: female C57BL6 mice, 10 mg/Kg subcutaneously, after 24 hours
Protocol: Test drugs are prepared in a solution containing 3% (w/v) 2-hydroxy propyl β-cyclodextrin (HPBCD) and 1% DMSO to a final concentration of 1 mg/ml, and subcutaneously injected to female C57BL6 mice (CHARLES RIVERS) weighing 20-25 g at the dose of 10 mg/Kg. Blood samples are obtained by puncturing the submandibular skin with a Goldenrod animal lancet at 24, 48, 72, and 96 hrs post drug application. Blood is collected into microvettes (SARSTEDT) containing EDTA tripotassium salt. Lymphocytes in blood samples are counted using a HEMAVET Multispecies Hematology System, HEMAVET HV950FS (Drew Scientific Inc.).
(Hale, J. et al Bioorg. & Med. Chem. Lett. 14 (2004) 3351).
A lymphopenia assay in mice; as previously described, was employed to measure the in vivo blood lymphocyte depletion after dosing with (2S)-2-amino-3-oxo-3-({4-[(5-phenylpentyl)oxy]-3-(2-thienyl)phenyl}amino)propyl dihydrogen phosphate. This S1P1 agonist is useful for S1P-related diseases and exemplified by the lymphopenia in vivo response. […] Lymphocytes in blood samples were counted using a HEMAVET Multispecies Hematology System, HEMAVET HV950FS (Drew Scientific Inc.). […]

T1 sequence (P21453 whole entry): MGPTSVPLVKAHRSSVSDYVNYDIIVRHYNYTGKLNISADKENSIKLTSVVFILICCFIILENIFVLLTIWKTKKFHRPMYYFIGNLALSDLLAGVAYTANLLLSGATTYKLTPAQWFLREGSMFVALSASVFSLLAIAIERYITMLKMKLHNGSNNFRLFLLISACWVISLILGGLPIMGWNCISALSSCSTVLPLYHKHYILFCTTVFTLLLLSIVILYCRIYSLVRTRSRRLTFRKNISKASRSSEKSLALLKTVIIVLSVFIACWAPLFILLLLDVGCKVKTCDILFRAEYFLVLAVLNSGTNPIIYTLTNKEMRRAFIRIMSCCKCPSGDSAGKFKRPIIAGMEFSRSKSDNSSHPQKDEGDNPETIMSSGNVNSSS

Row | pEC50 [1] | Compound | lymphocyte count (number of lymphocytes 10^3/μL blood) [2]
1 | 7.02 | C[C@@](N)(COP(=O)(O)O)C(=O)Nc1ccc(OCCCCCc2ccccc2)c(-c2cccs2)c1 [Compound 1, (2R)-2-amino-2-methyl-3-oxo-3-({4-[(5-phenylpentyl)oxy]-3-(2-thienyl)phenyl}amino)propyl dihydrogen phosphate] | –
2 | 7.47 | C[C@](N)(COP(=O)(O)O)C(=O)Nc1ccc(OCCCCCc2ccccc2)c(-c2cccs2)c1 [Compound 2, (2S)-2-amino-2-methyl-3-oxo-3-({4-[(5-phenylpentyl)oxy]-3-(2-thienyl)phenyl}amino)propyl dihydrogen phosphate] | –
3 | 8.52 | N[C@@H](COP(=O)(O)O)C(=O)Nc1ccc(OCCCCCc2ccccc2)c(-c2cccs2)c1 [Compound 4, (2S)-2-amino-3-oxo-3-({4-[(5-phenylpentyl)oxy]-3-(2-thienyl)phenyl}amino)propyl dihydrogen phosphate] | < 1 10^3/μL blood

Row | Compound | pEC50 [1] | lymphocyte count (number of lymphocytes 10^3/μL blood) [2]
4 | (2S)-2-amino-3-({3-(2-furyl)-4-[(5-phenylpentyl)oxy]phenyl}amino)-3-oxopropyl dihydrogen phosphate [Compound 3] | 8.10 | –
